# According to ChEMBL document CHEMBL5126603, “Discovery of Clinical Candidate CHF-6366: A Novel Super-soft Dual Pharmacology Muscarinic Antagonist and β2 Agonist (MABA) for the Inhaled Treatment of Respiratory Diseases” (J Med Chem, 2022):
# Assays:
# [1] = Metabolic stability in human lung S9 fraction assessed as half life at 1 uM measured after 0 to 60 mins in presence of NADPH by LC-MS/MS analysis; format: ADME, subcellular; settings: time 0-60 min
# [2] = In vivo agonist activity at beta-2 adrenoceptor in Dunkin-Hartley guinea pig trachea assessed as inhibition of histamine induced bronchoconstriction at 1 nmol/Kg, IT(Intratracheal) measured after 24 hr by Konzett-Roessler methodology relative to control; format: functional; settings: Cavia porcellus
# [3] = biological target: L-type calcium channel phenylalkylamine site (Homo sapiens, UniProt O60840+Q01668+Q13698+Q13936); test: Inhibition of L-type calcium channel phenylalkylamine site (unknown origin) at 10 uM relative to control; format: protein assay
# [4] = In vivo antagonist activity at muscarinic M3 receptor in Dunkin-Hartley guinea pig trachea assessed as inhibition of acetylcholine induced bronchoconstriction at 1 nmol/Kg, IT(Intratracheal) measured after 24 hr in presence of ICI-118551 by Konzett-Roessler methodology relative to control; format: functional; settings: Cavia porcellus
# [5] = Tmax in Dunkin-Hartley guinea pig plasma at 500 nmol/Kg, IT(Intratracheal) measured after 72 hrs by LC/MS-MS analysis; format: ADME, cell-free, Cavia porcellus; settings: inhaled or intranasal
# Trachea [6] = test: (§1) Bifunctional antagonist activity at muscarinic M3 receptor /agonist activity at beta-2 adrenoceptor in Dunkin-Hartley guinea pig trachea assessed as inhibition of acetylcholine-induced bronchoconstriction at 1 nmol/Kg, IT(Intratracheal) measured after 30 mins by Konzett-Roessler methodology relative to control; format: functional; settings: Cavia porcellus, 0.5 h
# [7] = Metabolic stability in human plasma assessed as half life at 5 uM measured upto 120 mins by LC-MS/MS analysis; format: ADME, cell-free
# [8] = AUCinfinity in Dunkin-Hartley guinea pig plasma at 500 nmol/Kg, IT(Intratracheal) measured after 72 hrs by LC/MS-MS analysis; format: ADME, cell-free, Cavia porcellus; parameters: dose 500 nmol/kg, time 72 hrs, route it(Intratracheal); settings: inhaled or intranasal
# [9] = Metabolic stability in Dunkin-Hartley guinea pig lung S9 fraction assessed as half life at 1 uM measured after 0 to 60 mins in presence of NADPH by LC-MS/MS analysis; format: ADME, subcellular, Cavia porcellus; settings: time 0-60 min
# [10] = In vivo agonist activity at beta-2 adrenoceptor in Dunkin-Hartley guinea pig trachea assessed as inhibition of histamine induced bronchoconstriction at 1 nmol/Kg, IT(Intratracheal) measured after 1 hr by Konzett-Roessler methodology relative to control; format: functional; settings: Cavia porcellus
# Trachea [11] = test: as §1, with “acetylcholine induced” for “acetylcholine-induced”, “1 hr” for “30 mins”; format: functional; settings: Cavia porcellus
# [12] = In vivo agonist activity at beta-2 adrenoceptor in Dunkin-Hartley guinea pig trachea assessed as inhibition of histamine induced bronchoconstriction at 0.3 nmol/Kg, IT(Intratracheal) measured after 1 hr by Konzett-Roessler methodology relative to control; format: functional; settings: Cavia porcellus
# [13] = Metabolic stability in rat liver microsomes assessed as clearance at 1 uM measured per mg protein incubated upto 60 mins in presence of NADPH by LC-MS/MS analysis; format: ADME, Microsome; settings: read-out: CLH
# [14] = Metabolic stability in Dunkin-Hartley guinea pig plasma assessed as half life at 5 uM measured upto 120 mins by LC-MS/MS analysis; format: ADME, cell-free, Cavia porcellus
# Trachea [15] = test: In vivo bifunctional antagonist activity at muscarinic M3 receptor /agonist activity at beta-2 adrenoceptor in Dunkin-Hartley guinea pig trachea assessed as inhibition of carbachol induced contraction; format: functional, tissue-based; settings: Cavia porcellus
# [16] = AUCinfinity in Dunkin-Hartley guinea pig lung at 500 nmol/Kg, IT(Intratracheal) measured after 72 hrs by LC/MS-MS analysis; format: ADME, tissue-based, Cavia porcellus; parameters: dose 500 nmol/kg, time 72 hrs, route it(Intratracheal); settings: in vivo, inhaled_or_intranasal
# [17] = In vivo antagonist activity at muscarinic M3 receptor in Dunkin-Hartley guinea pig trachea assessed as inhibition of acetylcholine induced bronchoconstriction at 0.3 nmol/Kg, IT(Intratracheal) measured after 24 hr in presence of ICI-118551 by Konzett-Roessler methodology relative to control; format: functional; settings: Cavia porcellus
# Trachea [18] = test: as §1, with “acetylcholine induced” for “acetylcholine-induced”, “24 hr” for “30 mins”; format: functional; settings: Cavia porcellus
# [19] = Cmax in Dunkin-Hartley guinea pig plasma at 500 nmol/Kg, IT(Intratracheal) measured after 72 hrs by LC/MS-MS analysis; format: ADME, cell-free, Cavia porcellus; parameters: dose 500 nmol/kg, time 72 hrs, route it(Intratracheal); settings: inhaled or intranasal
# [20] = biological target: T1, 5-hydroxytryptamine receptor 2C (Homo sapiens) (UniProt P28335); test: Inhibition of 5-HT2c (unknown origin) at 10 uM relative to control
# T1 sequence (whole entry): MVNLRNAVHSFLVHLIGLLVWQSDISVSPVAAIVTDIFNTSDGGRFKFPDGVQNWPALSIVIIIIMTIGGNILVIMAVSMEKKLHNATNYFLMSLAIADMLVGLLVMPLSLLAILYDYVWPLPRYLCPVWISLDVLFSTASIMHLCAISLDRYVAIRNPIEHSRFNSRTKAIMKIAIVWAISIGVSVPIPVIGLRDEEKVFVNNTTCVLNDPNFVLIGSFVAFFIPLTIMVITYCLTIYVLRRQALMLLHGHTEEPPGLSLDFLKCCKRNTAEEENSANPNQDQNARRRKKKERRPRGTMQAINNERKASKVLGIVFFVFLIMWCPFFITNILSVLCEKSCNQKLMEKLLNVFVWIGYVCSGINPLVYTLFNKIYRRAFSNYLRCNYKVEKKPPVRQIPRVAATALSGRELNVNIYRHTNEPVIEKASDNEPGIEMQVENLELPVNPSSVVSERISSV
# Trachea [21] = test: as §1, with “0.1” for “1”; format: functional; settings: Cavia porcellus, 0.5 h
# [22] = In vivo antagonist activity at muscarinic M3 receptor in Dunkin-Hartley guinea pig trachea assessed as inhibition of acetylcholine induced bronchoconstriction at 1 nmol/Kg, IT(Intratracheal) measured after 1 hr in presence of ICI-118551 by Konzett-Roessler methodology relative to control; format: functional; settings: Cavia porcellus
# [23] = Metabolic stability in rat plasma assessed as half life at 5 uM measured upto 120 mins by LC-MS/MS analysis; format: ADME, cell-free
# [24] = Metabolic stability in Dunkin-Hartley guinea pig hepatocytes assessed as clearance at 1 uM measured per 10^6 cells and incubated upto 90 mins by LC-MS/MS analysis; format: ADME, cell-based, Cavia porcellus, Hepatocyte; settings: read-out: CLH
# Trachea [25] = test: as §1, with “0.1” for “1”, “5” for “30”; format: functional; settings: Cavia porcellus
# [26] = Metabolic stability in rat hepatocytes assessed as clearance at 1 uM measured per 10^6 cells and incubated upto 90 mins by LC-MS/MS analysis; format: ADME, cell-based, Hepatocyte; settings: read-out: CLH
# [27] = Metabolic stability in human hepatocytes assessed as clearance at 1 uM measured per 10^6 cells and incubated upto 90 mins by LC-MS/MS analysis; format: ADME, cell-based, Hepatocyte; settings: read-out: CLH
# [28] = AUClast in Dunkin-Hartley guinea pig plasma at 500 nmol/Kg, IT(Intratracheal) measured after 72 hrs by LC/MS-MS analysis; format: ADME, cell-free, Cavia porcellus; parameters: time 72 hrs, dose 500 nmol/kg, route it(Intratracheal); settings: inhaled or intranasal
# [29] = Half life in Dunkin-Hartley guinea pig lung at 500 nmol/Kg, IT(Intratracheal) measured after 72 hrs by LC/MS-MS analysis; format: ADME, tissue-based, Cavia porcellus; settings: inhaled or intranasal
# Trachea [30] = test: In vivo bifunctional antagonist activity at muscarinic M3 receptor /agonist activity at beta-2 adrenoceptor in Dunkin-Hartley guinea pig trachea assessed as time duration for inhibition of carbachol induced contraction measured […]; format: functional, Cavia porcellus
# [31] = Mutagenicity in Escherichia coli assessed as induction of reverse mutation by Ames test; format: toxicity
structure (smiles),measurement,setting,value
Cn1nc(C(=O)OCCCCNC[C@H](O)c2ccc(O)c3[nH]c(=O)ccc23)cc1COc1cccc([C@@H](NC(=O)O[C@H]2CN3CCC2CC3)c2ccccc2)c1,half-life at 1 µM,[1],> 120 min
same,inhibition in vivo at 0.001 µmol/kg,[2],50.1%
same,inhibition at 10 µM,[3],> 65%
same,inhibition in vivo at 0.001 µmol/kg,[4],47.2%
same,Tmax,[5],4.98 min
same,inhibition in vivo at 0.001 µmol/kg,Trachea [6],90.8%
same,half-life at 5 µM,[7],20 min
same,AUC(0-inf),[8],661 ng·h/mL
same,half-life at 1 µM,[9],> 120 min
same,inhibition in vivo at 0.001 µmol/kg,[10],69.8%
same,inhibition in vivo at 0.001 µmol/kg,Trachea [11],92.4%
same,inhibition in vivo at 0.0003 µmol/kg,[12],31.9%
same,microsomal CLint at 1 µM,[13],37 µL/min/mg
same,half-life at 5 µM,[14],34 min
same,IC50,Trachea [15],0.316 nM
same,AUC,[16],725199 ng·h/g
same,inhibition in vivo at 0.0003 µmol/kg,[17],30.1%
same,inhibition in vivo at 0.001 µmol/kg,Trachea [18],74.8%
same,Cmax,[19],126 ng/g
same,inhibition,[20],> 65%
same,inhibition in vivo at 0.0001 µmol/kg,Trachea [21],33.1%
same,inhibition in vivo at 0.001 µmol/kg,[22],84.1%
same,half-life at 5 µM,[23],< 5 min
same,hepatocyte CLint at 1 µM,[24],37 µL/min/1e6 cells
same,inhibition in vivo at 0.0001 µmol/kg,Trachea [25],9.7%
same,hepatocyte CLint at 1 µM,[26],32 µL/min/1e6 cells
same,hepatocyte CLint at 1 µM,[27],33 µL/min/1e6 cells
same,AUC(0-t) at 72 h,[28],460 ng·h/mL
same,half-life,[29],49.2 h
same,Time,Trachea [30],>225 min
same,Activity,[31],Non-Toxic
